Experimental data: patent US11596692B1 (Incyte Corporation, priority 2018, dated 2023)

test system: IRF3; test: IRF3 activation assay in THP-1 Dual cells; type: cell-based; settings: Homo sapiens, THP-1, Table 4C; read-out: THP1 IRF3 EC50
Description: THP-1 Dual Cells (Invivogen) were maintained in RPMI1640 medium with addition of 10% FBS, 100 μg/ml zeocin, 10 μg/ml blasticidin. Cells were added in a 96-well flat bottom assay plate at 100,000 per well in 100 μL complete RPMI medium. Test compounds were prepared by serial dilution in complete RPMI medium and 100 μL test compounds were transferred to each corresponding well. The assay plate was incubated at 37° C., 5% CO2 for 24 hours. After the overnight incubation, 20 μL of the culture supernatants were collected, followed by addition of 180 μL of QUANTI-Blue (Invivogen) to assess IRF3 activity. The amount of IRF3 activation was assessed by reading the absorbance at 620-655 nm with a microplate reader 2 hours later. The culture supernatant from the untreated THP-1 cells was used as the negative control. EC50 determination was performed by fitting the curve of percent control activity versus the log of the compound concentration using the GraphPad Prism 6.0 software.

Row | Compound | EC50
1 | CCn1nc(C)cc1C(=O)Nc1nc2cc(C(N)=O)cc(OCCCN3CCN(C)CC3)c2n1C/C=C/Cn1c2nc(-c3cc(C)nn3CC)ncc2c2cc(C(N)=O)cc(OCCCOC)c21 [Example S36, (E)-9-(4-(5-carbamoyl-2-(1-ethyl-3-methyl-1H-pyrazole-5-carboxamido)-7-(3-(4-methylpiperazin-1-yl)propoxy)-1H-benzo[d]imidazol-1-yl)but-2-en-1-yl)-2-(1-ethyl-3-methyl-1H-pyrazol-5-yl)-8-(3-methoxypropoxy)-9H-pyrimido[4,5-b]indole-6-carboxamide] | 0.05 to 0.2 µM
2 | CCn1nc(C)cc1C(=O)Nc1nc2cc(C(N)=O)cc(OCCCO)c2n1C/C=C/Cn1c2ccc(C(N)=O)cc2c2cc(F)c(-c3cc(C)nn3CC)nc21 [Example S37, (E)-9-(4-(5-carbamoyl-2-(1-ethyl-3-methyl-1H-pyrazole-5-carboxamido)-7-(3-hydroxypropoxy)-1H-benzo[d]imidazol-1-yl)but-2-en-1-yl)-2-(1-ethyl-3-methyl-1H-pyrazol-5-yl)-3-fluoro-9H-pyrido[2,3-b]indole-6-carboxamide] | ≤ 0.05 µM
3 | CCn1nc(C)cc1C(=O)Nc1nc2cc(C(N)=O)cc(OCCCN)c2n1C/C=C/Cn1c2nc(-c3cc(C)nn3CC)ncc2c2cc(C(N)=O)cc(OCCCOC)c21 [Example S38, (E)-9-(4-(7-(3-aminopropoxy)-5-carbamoyl-2-(1-ethyl-3-methyl-1H-pyrazole-5-carboxamido)-1H-benzo[d]imidazol-1-yl)but-2-en-1-yl)-2-(1-ethyl-3-methyl-1H-pyrazol-5-yl)-8-(3-methoxypropoxy)-9H-pyrimido[4,5-b]indole-6-carboxamide] | 0.5 to 1 µM
4 | CCn1nc(C)cc1C(=O)Nc1nc2cc(C(N)=O)cc(OCCCNC(=O)CCCC(=O)O)c2n1C/C=C/Cn1c2nc(-c3cc(C)nn3CC)ncc2c2cc(C(N)=O)cc(OCCCOC)c21 [Example S39, (E)-5-((3-((5-carbamoyl-1-(4-(6-carbamoyl-2-(1-ethyl-3-methyl-1H-pyrazol-5-yl)-8-(3-methoxypropoxy)-9H-pyrimido[4,5-b]indol-9-yl)but-2-en-1-yl)-2-(1-ethyl-3-methyl-1H-pyrazole-5-carboxamido)-1H-benzo[d]imidazol-7-yl)oxy)propyl)amino)-5-oxopentanoic acid] | ≤ 0.05 µM
5 | CCn1nc(C)cc1C(=O)Nc1nc2cc(C(N)=O)cc(OCCOC(=O)c3cc(C)nn3CC)c2n1C/C=C/Cn1c2nc(-c3cc(C)nn3CC)ncc2c2cc(C(N)=O)cc(OCCCOC)c21 [Example S40, (E)-2-((5-carbamoyl-1-(4-(6-carbamoyl-2-(1-ethyl-3-methyl-1H-pyrazol-5-yl)-8-(3-methoxypropoxy)-9H-pyrimido[4,5-b]indol-9-yl)but-2-en-1-yl)-2-(1-ethyl-3-methyl-1H-pyrazole-5-carboxamido)-1H-benzo[d]imidazol-7-yl)oxy)ethyl 1-ethyl-3-methyl-1H-pyrazole-5-carboxylate] | ≤ 0.05 µM
6 | CCn1nc(C)cc1C(=O)Nc1nc2cc(C(N)=O)cc(OCCO)c2n1C/C=C/Cn1c2nc(-c3cc(C)nn3CC)ncc2c2cc(C(N)=O)cc(OCCCOC)c21 [Example S41, (E)-9-(4-(5-carbamoyl-2-(1-ethyl-3-methyl-1H-pyrazole-5-carboxamido)-7-(2-hydroxyethoxy)-1H-benzo[d]imidazol-1-yl)but-2-en-1-yl)-2-(1-ethyl-3-methyl-1H-pyrazol-5-yl)-8-(3-methoxypropoxy)-9H-pyrimido[4,5-b]indole-6-carboxamide] | ≤ 0.05 µM
7 | CCn1nc(C)cc1C(=O)Nc1nc2cc(C(N)=O)cc(OCCCNC(=O)[C@H](CC(=O)O)NC(=O)[C@H](CC(=O)O)NC(=O)[C@H](CCCNC(=N)N)NC(=O)[C@@H](N)CC(=O)O)c2n1C/C=C/Cn1c2nc(-c3cc(C)nn3CC)ncc2c2cc(C(N)=O)cc(OCCCOC)c21 [Example S42] | 0.2 to 0.5 µM
